This is an account of results in ChEMBL document CHEMBL4261591, “Antimicrobial 1,3,4-trisubstituted-1,2,3-triazolium salts” (2018).

Each structure is given as a SMILES string. Where only a bound is given, the exact number is not on record here.

Common to all, as to assay type: functional
The test system of assay [1] is Staphylococcus epidermidis. In words: microbe, parasite or virus in culture. To be noted: ATCC 14990, 24 h.
Description: Antibacterial activity against Staphylococcus epidermidis ATCC 14990 after 24 hrs by CLSI broth microdilution assay
In a further assay the test system is Escherichia coli. In words: microbe, parasite or virus in culture. The settings on record: ATCC 25922, 24 h.
The subject of the next assay is Bacillus subtilis. As to the kind of experiment: microbe, parasite or virus in culture. To be noted: ATCC 6051, 24 h.
The next assay relates to Candida albicans. In words: microbe, parasite or virus in culture. The settings on record: ATCC 90028, 24 h.
In a further assay the test system is Klebsiella aerogenes. In words: microbe, parasite or virus in culture. To be noted: ATCC 13048, 24 h.
A further assay relates to Saccharomyces cerevisiae. In words: microbe, parasite or virus in culture. The settings on record: ATCC 9763, 24 h.
Assay [2] can be described thus: Selectivity index, ratio of MIC for Candida albicans ATCC 90028 to MIC for Bacillus subtilis ATCC 6051.
Assay [3] can be described thus: Selectivity index, ratio of MIC for Saccharomyces cerevisiae ATCC 9763 to MIC for Staphylococcus epidermidis ATCC 14990.
Assay [4] can be described thus: Selectivity index, ratio of MIC for Enterobacter aerogenes ATCC 13048 to MIC for Bacillus subtilis ATCC 6051.
Assay [5] can be described thus: Selectivity index, ratio of MIC for Enterobacter aerogenes ATCC 13048 to MIC for Staphylococcus epidermidis ATCC 14990.
The nature of assay [6]: Selectivity index, ratio of MIC for Saccharomyces cerevisiae ATCC 9763 to MIC for Bacillus subtilis ATCC 6051.
The nature of assay [7]: Selectivity index, ratio of MIC for Escherichia coli ATCC 25922 to MIC for Bacillus subtilis ATCC 6051.
A short description of assay [8]: Selectivity index, ratio of MIC for Escherichia coli ATCC 25922 to MIC for Staphylococcus epidermidis ATCC 14990.
Assay [9] can be described thus: Selectivity index, ratio of MIC for Candida albicans ATCC 90028 to MIC for Staphylococcus epidermidis ATCC 14990.

Description for Bacillus subtilis: Antibacterial activity against Bacillus subtilis ATCC 6051 after 24 hrs by CLSI broth microdilution assay
Description for Candida albicans: Antifungal activity against Candida albicans ATCC 90028 after 24 hrs by CLSI broth microdilution assay
Description for Escherichia coli: Antibacterial activity against Escherichia coli ATCC 25922 after 24 hrs by CLSI broth microdilution assay
Description for Klebsiella aerogenes: Antibacterial activity against Enterobacter aerogenes ATCC 13048 after 24 hrs by CLSI broth microdilution assay
Description for Saccharomyces cerevisiae: Antifungal activity against Saccharomyces cerevisiae ATCC 9763 after 24 hrs by CLSI broth microdilution assay

For the compound `CCCCc1cn(Cc2ccccc2)n[n+]1Cc1ccc(C(C)(C)C)cc1`, the MIC was 8 µM in [1]; > 250 µM with Escherichia coli; 8 µM against Bacillus subtilis; 250 µM with Candida albicans; > 250 µM with Klebsiella aerogenes; 250 µM in the assay on Saccharomyces cerevisiae.
Regarding `CCCCc1cn(Cc2ccccc2)n[n+]1Cc1ccccc1`, the MIC (in assay [1]; with Escherichia coli; with Bacillus subtilis; against Candida albicans; with Klebsiella aerogenes; against Saccharomyces cerevisiae) was > 250 µM each time.
Regarding `CCCCCCCCCCCCc1cn(-c2ccc(C)cc2)n[n+]1Cc1ccc(C(C)(C)C)cc1`, the MIC in [1] came to 2 µM; with Escherichia coli, 250 µM; with Bacillus subtilis, 2 µM; in the assay on Candida albicans, 4 µM; against Klebsiella aerogenes, 250 µM; against Saccharomyces cerevisiae it was 4 µM.
Turning to `CCCCCCCCCCCCc1cn(-c2ccc(C)cc2)n[n+]1Cc1ccccc1`, the MIC in [1] is 2 µM; with Escherichia coli, 8 µM; against Bacillus subtilis, 1 µM; in the assay on Candida albicans, 8 µM; against Klebsiella aerogenes it was 8 µM; in the assay with Saccharomyces cerevisiae, 8 µM.
With `CCCCCCCCc1cn(-c2ccc(C)cc2)n[n+]1Cc1ccccc1`, the MIC is 8 µM in assay [1]; > 250 µM against Escherichia coli; 4 µM in the assay on Bacillus subtilis; 250 µM with Candida albicans; > 250 µM in the assay with Klebsiella aerogenes; 250 µM in the assay on Saccharomyces cerevisiae. The Selectivity Index in assay [2], in assay [3], in assay [4], in assay [5], in assay [6] and in assay [7] was > 50 each time. In addition, the Selectivity Index in assay [8] and in [9] was > 50 throughout.
As for `Cc1ccc(-n2cc(-c3ccccc3)[n+](Cc3ccccc3)n2)cc1`, the MIC (in [1]; against Escherichia coli; with Bacillus subtilis; with Candida albicans; against Klebsiella aerogenes; in the assay with Saccharomyces cerevisiae) was > 250 µM each time.
In the case of `Cc1ccc(-[n+]2nn(Cc3ccccc3)cc2-c2ccccc2)cc1`, the MIC (in assay [1]; in the assay on Escherichia coli; with Bacillus subtilis; with Candida albicans; against Klebsiella aerogenes; against Saccharomyces cerevisiae) was > 250 µM in each case.
In the case of `CCCCCCCCc1cn(-c2ccc(C)cc2)n[n+]1Cc1ccc(C(C)(C)C)cc1`, the MIC was found to be 2 µM in assay [1]; 16 µM against Escherichia coli; 2 µM with Bacillus subtilis; 4 µM against Candida albicans; 16 µM against Klebsiella aerogenes; 8 µM against Saccharomyces cerevisiae.
For the compound `CCCCCCCCCCCCc1cn(Cc2ccccc2)n[n+]1Cc1ccccc1`, the MIC in assay [1] was determined as 4 µM; against Escherichia coli, 16 µM; in the assay on Bacillus subtilis, 2 µM; with Candida albicans, 16 µM; in the assay on Klebsiella aerogenes, 16 µM; against Saccharomyces cerevisiae, 16 µM.
With `CCCCCCCCCCCCc1cn(Cc2ccccc2)n[n+]1Cc1ccc(C(C)(C)C)cc1`, the MIC amounted to 2 µM in [1]; 250 µM against Escherichia coli; 2 µM against Bacillus subtilis; 8 µM with Candida albicans; 250 µM with Klebsiella aerogenes; 16 µM with Saccharomyces cerevisiae.
For `CCCCc1cn(-c2ccc(C)cc2)n[n+]1Cc1ccccc1`, the MIC (in assay [1]; in the assay on Escherichia coli; in the assay with Bacillus subtilis; against Candida albicans; with Klebsiella aerogenes; against Saccharomyces cerevisiae) was > 250 µM in each case.
With `CCCCc1cn(-c2ccc(C)cc2)n[n+]1Cc1ccc(C(C)(C)C)cc1`, the MIC was 4 µM in assay [1]; 250 µM against Escherichia coli; 4 µM against Bacillus subtilis; 250 µM in the assay with Candida albicans; > 250 µM against Klebsiella aerogenes; 250 µM in the assay with Saccharomyces cerevisiae. The Selectivity Index in assay [2], in assay [3], in [4], in assay [5], in assay [6] and in assay [7] was > 50 in each case. The Selectivity Index in assay [8] and in [9] was > 50 throughout.
As for `CCCCCCCCc1cn(Cc2ccccc2)n[n+]1Cc1ccccc1`, the MIC is 8 µM in [1]; > 250 µM against Escherichia coli; 8 µM against Bacillus subtilis; 250 µM against Candida albicans; > 250 µM in the assay on Klebsiella aerogenes; 250 µM against Saccharomyces cerevisiae.
With `Cc1ccc(-n2cc(-c3ccccc3)[n+](Cc3ccc(C(C)(C)C)cc3)n2)cc1`, the MIC in assay [1] was 8 µM; in the assay on Escherichia coli, > 250 µM; against Bacillus subtilis, 8 µM; against Candida albicans it was > 250 µM; against Klebsiella aerogenes it was > 250 µM; with Saccharomyces cerevisiae, > 250 µM.
Take `Cc1ccc(-[n+]2nn(Cc3ccc(C(C)(C)C)cc3)cc2-c2ccccc2)cc1`: the MIC in assay [1] was 16 µM; in the assay on Escherichia coli it was > 250 µM; in the assay on Bacillus subtilis it was 16 µM; with Candida albicans it was > 250 µM; in the assay with Klebsiella aerogenes, > 250 µM; against Saccharomyces cerevisiae, > 250 µM.
With `CCCCCCCCc1cn(Cc2ccccc2)n[n+]1Cc1ccc(C(C)(C)C)cc1`, the MIC in [1] came to 2 µM; against Escherichia coli, 31 µM; in the assay on Bacillus subtilis it was 1 µM; in the assay on Candida albicans it was 8 µM; in the assay with Klebsiella aerogenes it was 31 µM; against Saccharomyces cerevisiae, 16 µM.
